We go through five molecules from patent US20150329821A1, “METHODS OF DIFFERENTIATING STEM CELLS INTO ONE OR MORE CELL LINEAGES” (AGENCY FOR SCIENCE, TECHNOLOGY AND RESEARCH, priority 2012, published 2015).

The assay relates to hESC. Briefly: qPCR of DE vs. mesoderm emergence from primitive streak under signaling perturbations. It is filed as cell-based, human. The following applies: for mesoderm formation from PS: inhibiting endogenous Wnt on days 2-3; for downregulation of MESP1: neutralizing endogenous BMP on days 2-3, PS to DE, 2 hESC lines. How it is done: RNA was harvested from adherent cells grown in individual wells of a 12-well plate by the addition of 350 μL of RLT Buffer for several minutes. RNA could be indefinitely frozen at −80° C. or could be directly extracted. RNA extraction was conducted with the RNeasy Micro Kit (Qiagen) generally as per the manufacturer's recommendations with an intermediate 1 hour on-column DNase digestion to eliminate residual genomic DNA, and RNA was finally eluted from the column in 30 μL H20. After assessment of total RNA concentration, generally 100-500 ng of total RNA was used for reverse transcription (Superscript Reverse Transcriptase, Invitrogen) as per the manufacturer's instructions. Finally, cDNA was diluted 1:30 in H2O and was used for qPCR in 384-well high-throughput format. For each individual qPCR reaction per′ well (10 μL), 5 μL of 2×SYBR Green Master Mix (Applied Biosystems) was used and combined with 0.4 μL of combined forward and reverse primer mix (at 10 μM of forward+reverse primers in the combined primer mix). qPCR was conducted for 40 cycles at Tm=60° C., and a dissociation curve was generated at the end of the reaction to ensure only one product was specifically amplified per primer pair. qPCR analysis was conducted by the ddCt method: for each cDNA sample, the expression of experimental genes was internally normalized to the expression of a human housekeeping gene (Pbgd) for that same cDNA sample, and afterwards, expression of experimental genes could be determined between different cDNA samples. For all differentiated populations, expression of experimental genes was compared to undifferentiated hESCs plated for the same experimental set to ensure that any perceived increase or decrease of gene expression was significant relative to the ab initio expression of that gene in undifferentiated hESCs. Thus, for all qPCR data both in matrices […] and histograms (FIG. 39-65) all gene expression is normalized such that the level of gene expression (e.g., for SOX17) in hESCs=1. For each experiment, at least two distinct wells per, condition were harvested, and for each well, 2 or 3 technical replicates were performed for each gene whose expression was analyzed by qPCR.
To deduce the developmental signaling logic underlying cell-fate bifurcations, signaling-perturbation matrices (FIG. 1-23) were generated to visually represent qPCR data of developmental gene expression (rows) in response to various signaling-perturbations (columns). Signaling-perturbation matrices were generated using GenePattern's HeatMapViewer module (http://genepattern.broadinstitute.org), using as input data matrices of signaling-perturbation qPCR responses that were normalized to levels of developmental gene expression in undifferentiated hESC as described above. In HeatMapViewer, gene expression values are linearly transformed into colors (as indicated by the color legend below each matrix) in which no color represents low gene expression, stronger color represents higher gene expression and the strongest shade of color is equivalent to the highest level of the gene that was expressed in all signaling-perturbations tested in that matrix.

`O=c1[nH]c(-c2ccc(C(F)(F)F)cc2)nc2c1CSCC2` [XAV939, 3,5,7,8-Tetrahydro-2-[4-(trifluoromethyl)phenyl]-4H-thiopyrano[4,3-d]pyrimidin-4-one]: the “mesoderm formation from PS” value was “blocked mesoderm formation”.

In the case of `Cc1ccc2nc(NC(=O)CSc3nc4c(c(=O)n3-c3ccccc3)SCC4)sc2c1` [IWP2, N-(6-Methyl-2-benzothiazolyl)-2-[(3,4,6,7-tetrahydro-4-oxo-3-phenylthieno[3,2-d]pyrimidin-2-yl)thio]-acetamide], the “mesoderm formation from PS” value is recorded as “blocked mesoderm formation”.

As for `Cl.c1ccc2c(-c3cnn4cc(-c5ccc(N6CCNCC6)cc5)cnc34)ccnc2c1` [DM3189/LDN-193189, 4-(6-(4-(piperazin-1-yl)phenyl)pyrazolo[1,5-a]pyrimidin-3-yl)quinoline hydrochloride], the “downregulation of MESP1” value is reported as around 3000 fold.

B1: Dkk1: inhibitor of Wnt signaling (protein, UniProt O94907 32-266, looked up)
Dickkopf-related protein 1: TLNSVLNSNAIKNLPPPLGGAAGHPGSAVSAAPGILYPGGNKYQTIDNYQPYPCAEDEECGTDEYCASPTRGGDAGVQICLACRKRRKRCMRHAMCCPGNYCKNGICVSSDQNHFRGEIEETITESFGNDHSTLDGYSRRTTLSSKMYHTKGQEGSVCLRSSDCASGLCCARHFWSKICKPVLKEGQVCTKHRRKGSHGLEIFQRCYCGEGLSCRIQKDHHQASNSSRLHTCQRH
For the molecule B1, the “mesoderm formation from PS” value is on record as “blocked mesoderm formation”.

B2: noggin: inhibitor of BMP signaling (protein, UniProt Q13253 28-232, looked up)
Noggin: QHYLHIRPAPSDNLPLVDLIEHPDPIFDPKEKDLNETLLRSLLGGHYDPGFMATSPPEDRPGGGGGAAGGAEDLAELDQLLRQRPSGAMPSEIKGLEFSEGLAQGKKQRLSKKLRRKLQMWLWSQTFCPVLYAWNDLGSRFWPRYVKVGSCFSKRSCSVPEGMVCKPSKSVHLTVLRWRCQRRGGQRCGWIPIQYPIISECKCSC
On to B2, for which the “downregulation of MESP1” value is reported as around 3000 fold.
